This note sets out measurements from patent US20200297820A1, “STIMULATION OF HUMAN MEIBOMIAN GLAND FUNCTION” (The Schepens Eye Research Institute, Inc., priority 2013, published 2020).

Type in all cases: cell-based
The subject of assay [1] is human meibomian gland epithelial cells. The experiment in a line: High-performance thin-layer chromatography of total cellular lipid extracts. The note with it: for accumulation of CE / accumulation of TG: 10 nM IGF-1 or 10 μg/mL AZM. The source says: Cell numbers were enumerated with a hemocytometer. Cellular lipid and lysosome accumulation were examined by staining cells with: Filipin III (a fluorometric probe for identifying unesterified cholesterol), LipidTOX green neutral lipid stain, and LysoTracker® Red DND-99 (a fluorescent technique designed for labeling acidic organelles such as lysosomes). Lysosomal lamellar bodies were identified by transmission electron microscopy. In brief, after culture and treatment on 24 mm polycarbonate membrane transwell inserts (0.4 μm pore size), cells were fixed in a solution of 2% formaldehyde+2.5% glutaraldehyde, in 0.08 M sodium cacodylate buffer, pH 7.4, post-fixed with 2% osmium tetroxide in 0.1 M sodium cacodylate buffer, and stained en bloc with 2% aqueousuranyl acetate. Samples were then dehydrated in graded ethyl alcohol solutions and embedded by using the tEPON-812 epoxy resin kit. Cross sections ([…]) were stained with 1% toluidine blue in 1% sodium tetraborate solution. Ultra-thin sections (60-90 nm) were imaged with a transmission electron microscope interfaced with a digital CCD camera. For biochemical assessments, cellular lipids were extracted with chloroform and methanol from samples with the same amount of protein. Lipids were then evaluated with high-performance thin-layer chromatography. With regard to the staining results, three Filipin, five LipidTox and four LysoTracker studies were conducted, and each experiment was performed in duplicate. Four random pictures were taken of each group, and four random areas were selected for the measurement of fluorescent intensities. The HPTLC experiments were performed in duplicate more than three times. Image data were quantified with ImageJ (http://rsbweb.nib.gov/ij/index.html). Electron microscopic analyses were performed in triplicate.
FIG. 8a illustrates the effect of AZM on the expression of cholesterol ester (CE), free cholesterol (FC), phosphatidylethanolamine (PE), phosphatidylcholine (PC), and phosphatidylinositol (PI) inhuman meibomian gland epithelial cells. Cells were treated with vehicle or 10 μg/ml AZM for 5 days before performing chromatographic analyses of total lipid extracts. FIG. 8b illustrates band intensity of the cells shown in FIG. 8a measured using ImageJ. Control band intensity was set to 1, and data (mean±SE) are reported as fold-change compared to control values. *p<0.05,**p<0.005, versus control. Band intensity analysis includes data from at least three independent experiments.
FIGS. 14a and 14b illustrate the effect of IGF-1, AZM, and IFG-1+AZM combination on the accumulation of CE, TG, FC, PE, and PC. […] FIG. 14b quantifies band intensity using ImageJ. The control band intensity was set to 1, and data (mean 6 SE) were reported as fold-change compared with control values. […] Other bands are unidentified lipids. Band intensity analysis included data from three independent experiments.

Assay [2] has as its system immortalized human meibomian gland epithelial cells. The experiment in a line: LipidTOX green neutral lipid staining (lipid accumulation). The conditions noted are these: 10 nM each hormone, up to 13 days.
The next assay has as its system LNCaP cells. In words: Proliferation of LNCaP control cells. The note with it: 1% FBS, 2 days. On the procedure:
Regarding cell proliferation assay, the human meibomian gland epithelial cells and LNCaP cells were cultured in 12-well plates in designated media and then exposed to IGF-1 or GH for defined periods. At experimental termination, cells were trypsinized and counted with a hemocytometer.
FIGS. 10a, 10b, and 10c illustrate the influence of IGF-1 on the proliferation of human meibomian gland epithelial cells. Cells were cultured (100,000 cells/well in 12-well plates, 3 wells per group) in basal, proliferating, and/or differentiating media and treated with IGF-I for 2 to 6 days. […] P values are for post hoc comparison compared with the control value. […] ANOVA indicates analysis of variance; EGF-BPE, epidermal growth factor-bovine pituitary extract; KSFM, keratinocyte serum-free medium. All comparisons are with control value. Whiskers mark SEM. aP<0.05 compared with the control value, post hoc test.

In assay [3] the test system is human meibomian gland epithelial cells. In words: Immunoblot of signaling pathways (Akt, FoxO1, ERK, JAK2/STAT5). The procedure:
The disclosure turns now to sodium dodecyl sulfate-polyacrylamide gel, electrophoresis, and immunoblots. Cells were directly lysed in Laemmli buffer supplemented with 1% protease inhibitor cocktail (Sigma-Aldrich) and 5% β-mercaptoethanol (Sigma-Aldrich). Lysates were heated at 95° C. for 10 minutes, separated by sodium dodecyl sulfate-polyacrylamide gel electrophoresis on 10% Tris-glycine precast gels, and transferred to polyvinylidene difluoride membranes. Rabbit or mouse antibodies used were specific for phosphorylated Akt (p-Akt), pan-Akt, p-FoxO1, FoxO1, p-JAK2, JAK2, and β-actin; for p-ERK, ERK-2, STAT5, and the precursor form of SREBP-1; and for p-STAT5. Membranes were blocked with 5% bovine serum albumin in Tris-buffered saline containing 0.01% polysorbate 20. All primary antibodies were diluted to 1:1000 in blocking buffer except for p-Akt (1:4000), p-ERK (1:2000), ERK-2 (1:4000), SREBP-1 (1:200), and β-actin (1:10 000). Horseradish peroxidase-conjugated secondary antibodies were goat anti-rabbit IgG and Fc-specific goat anti-mouse IgG diluted to 1:5000. Proteins were visualized with enhanced chemiluminescent substrate or with ultrasensitive chemiluminescent substrate. Densitometry was performed with image-processing software.
To determine whether IGF-1 promotes the phosphorylation of Akt in human meibomian gland epithelial cells, cells were cultured under proliferating or differentiating conditions and then exposed to IGF-1 for 15 minutes.
FIGS. 9a, 9b, and 9c illustrate the effects of insulin-like growth factor 1 (IGF-1) and growth hormone (GH) on signaling pathways in human meibomian gland epithelial cells. Cells were cultured in keratinocyte serum-free medium containing epidermal growth factor (EGF) and bovine pituitary extract (BPE) for 2 days and then keratinocyte serum-free medium alone overnight or were cultured in 10% fetal bovine serum (FBS) medium for 5 to 7 days and in 1% FBS medium overnight. Cells were then incubated with vehicle or a 10 μM concentration of LY294002 for 2 hours, followed by IGF-1 or GH treatment for 15 minutes. Cell lysates were evaluated on immunoblotting. […] These experiments were repeated at least 3 times with similar results.
To assess whether GH activates Akt, FoxO1, ERK-2, or its classic (i.e., JAK2 and STAT5) signaling pathways in human meibomian gland epithelial cells, cells were cultured in proliferating or differentiating media, and were exposed to a 10 nM concentration of GH for 15 minutes, and processed for immunoblot analyses. […]

Consider `CC[C@H]1OC(=O)[C@H](C)[C@@H](O[C@H]2C[C@@](C)(OC)[C@@H](O)[C@H](C)O2)[C@H](C)[C@@H](O[C@@H]2O[C@H](C)C[C@H](N(C)C)[C@H]2O)[C@](C)(O)C[C@@H](C)CN(C)[C@H](C)[C@@H](O)[C@]1(C)O` [Azithromycin], for which, in assay [1] (7 days), the “accumulation of CE” value was “significant effect” and the “accumulation of TG” value is listed as “significant effect”. The “accumulation of PE” value in assay [1] (10 μg/mL AZM, 7 days) was “significant effect”. In assay [1] (10 μg/ml, 5 days), the “accumulation of esterified cholesterol (CE)” value is on record as “significantly promotes an accumulation”, the “accumulation of free cholesterol (FC)” value was “significantly promotes an accumulation”, the “accumulation of phosphatidylcholine (PC)” value is given as “significantly promotes an accumulation” and the “accumulation of phosphatidylethanolamine (PE)” value was “significantly promotes an accumulation”. Besides, the “accumulation of phosphatidylinositol (PI)” value in assay [1] (10 μg/ml, 5 days) is on record as “significantly promotes an accumulation”.

Consider GH: human growth hormone, for which the accumulation of lipid result in assay [2] was “significant accumulation of lipid”. In addition, in the assay with LNCaP cells, the proliferation result was “increased”. Also, the “phosphorylation of extracellular-signal-regulated kinases (ERKs)” value in assay [3] is “increase the phosphorylation”. Further, the “activation of Akt, FoxO1, ERK-2, JAK2 and STAT5” value was “did not show that GH elicited effects” in assay [3] (10 nM, 15 minutes, proliferating or differentiating media) and “negative results” in assay [3] (doses of 0.05 to 50 nM).

As for “IGF-1: recombinant human insulin-like growth factor 1”, the accumulation of lipid entry in assay [2] is “significant accumulation of lipid”. Besides, in assay [1] (7 days), the “accumulation of CE” value was “significant effect” and the “accumulation of TG” value was “significant effect”. In addition, in the assay on LNCaP cells, the proliferation result is reported as “increased”. Also, the “phosphorylation of extracellular-signal-regulated kinases (ERKs)” value in assay [3] is recorded as “increase the phosphorylation”. Further, the “phosphorylation of ERK” value in assay [3] (10 nM, 15 minutes, 2 studies enhanced, 3 no influence) was “inconsistent effect”. For the same compound, in assay [3] (10 nM, 15 minutes, differentiating cells), the “phosphorylation of FoxO1” value is “increased phosphorylation of FoxO1”. Moreover, the “culture condition in which Akt and FoxO1 phosphorylation occurred” value in assay [3] (10 nM, 15 minutes, proliferating or differentiating conditions) is recorded as “differentiating but not proliferating cells”. In assay [3] (IGF-1 for 15 minutes), the “concentration at which p-Akt effect became maximal” value was 10 nM and the “concentration at which p-Akt effect could be detected” value is reported as 1 nM. Moreover, in assay [3] (IGF-1 for 15 minutes, differentiating cells), the “expression of p-Akt” value was “dose-dependent expression of p-Akt”. In addition, the “phosphorylation of Akt” value in assay [3] (within minutes) is given as “increases the phosphorylation of Akt”.
